Measurements taken from US20180036270A1, “A METHOD OF PROTECTING AGAINST CARBONYL STRESS INDUCED ISCHEMIA-REPERFUSION INJURY IN THE DIABETIC BRAIN VIA ADMINISTRATION OF N-ACETYLCYSTEINE” (Board of Supervisors of Louisiana State University and …, priority 2015, published 2018).
Entries after “also recorded” stand apart in the source; their conditions may differ.

Assays:
[1] = test system: brain GSH and cysteine contents; assay: Brain GSH and cysteine by HPLC; type: in vivo, mouse
Text: (§1) Four-week-old male C57BL/6J mice, weighing 18-20 g, were purchased from Jackson Laboratory. These mice were maintained at the Animal Facility of the Louisiana State University Health Sciences Center—Shreveport. Animal care and use in the experiments follow the guidelines in the Guide for the Care and Use of Laboratory Animals, published by the US National Institutes of Health. Following adaptation for 1 week, the mice were divided randomly into 4 groups: non-treated sham operation group (NT-sham group, n=6), non-treated I/R group (NT-I/R group, n=5), vehicle I/R group (Veh-I/R group, n=24), and streptozotocin I/R group (STZ-I/R group, n=19). […] On day 7, mice whose plasma glucose was more than 300 mg/dl were deemed to be diabetic. From diabetes onset at week 1, a group of diabetic mice were given 0.2 mM NAC in the drinking water for 3 weeks (n=3; a total of 4 weeks diabetes, 3 weeks NAC) or 1 week (n=9; a total of 2 weeks diabetes, 1 week NAC). Veh-I/R mice were injected with citrate buffer for consecutive 5 days, and a group of Veh-treated mice were given 0.2 mM NAC for 2 weeks in the drinking water before the ischemia operation (Veh+NAC group, n=8). Another Veh-treated mice were injected (intraperitoneally, 12 hr interval) with 0.5M BSO 24 h before the ischemia operation and during the 24 h reperfusion period (Veh+BSO group, n=10). All mice were 9 weeks old at sacrifice.
Tissue contents of GSH, cysteine and γGC were determined by high-performance liquid chromatography (HPLC). […] Separation of GSH, cysteine and γGC derivatives whose peaks were detected at 365 nm wavelength was performed on a 250×4.6-mm Alltech Lichrosorb NH2 10 μm anion-exchange column. GSH, cysteine and γGC contents were quantified by comparison to standards derivatized in the same manner. Protein pellets were dissolved in 1 M NaOH for protein quantitation and GSH, cysteine and γGC concentrations were expressed as nanomoles per mg protein.

[2] = Plasma glucose levels in diabetic mice; type: in vivo, mouse; settings: 2 mM NAC for 3 weeks, 4 week diabetic mice
Experimental: Plasma levels in diabetic mice were elevated at ˜[…] which was 3-fold higher than controls (˜200 mg/dL). The percent (%) brain infarct area in vehicle- and STZ treated mice is linearly correlated with the plasma glucose level.
as §1, with “From diabetes onset at week 1, a group of diabetic mice were given 0.2 mM NAC in the drinking water for 3 weeks (n=3; a total of 4 weeks diabetes, 3 weeks NAC) or 1 week (n=9; a total of 2 weeks diabetes, 1 week NAC). Veh-I/R mice were injected with citrate buffer for consecutive 5 days, and a group of Veh-treated mice were given 0.2 mM NAC for 2 weeks in the drinking water before the ischemia operation (Veh+NAC group, n=8).” left out

brain MG contents = assay: Brain MG by HPLC; type: in vivo, mouse; settings: STZ diabetic mice, NAC 3 weeks
Experimental: Tissue contents of MG were also determined by HPLC. The brain tissues were homogenized in the same manner as that for GSH measurement. Homogenates (581 μl) were incubated with 19 μl of 60% perchloric acid at room temperature for 24 h and then centrifuged at 12000 rpm at 4° C. for 10 min. The supernatants were derivatized with 0.1M of o-phenylenediamine for 24 h to produce 2-methylquinoxaline. On the third day, the supernatants were used for measurements of MG contents. Separation of MG derivatives, whose peak was detected at 315 nm wavelength, was performed on a 250×4.6-mm Chromegabond Ultra C-18 reversed phase HPLC column. The contents were quantified using MG standards derivatized with o-phenylenediamine. MG contents were normalized to protein concentrations and expressed as nanomoles per mg protein.

[3] = test system: human brain microvascular endothelial cells (IHECs); assay: MG-occludin adduct formation in IHECs (Western blot, immunoprecipitation); type: cell-based; settings: IHECs in 5 mM glucose exposed to MG for 4 h with 2 mM NAC
STZ diabetic mice = assay: Tail bleed time as measure of coagulation; type: in vivo, mouse; settings: 20 week diabetic mice; NAC 2 mM in drinking water for 3 weeks
Experimental: Turning to FIG. 24, as a measure of coagulation, tail bleed time was determined in animals that were diabetic for 20 weeks.

[4] = test system: diabetic mice with transient ischemic attacks; assay: Thrombosis after transient ischemic attack (TIA) in diabetic mice; type: in vivo, mouse; settings: diabetes+TIA mice given NAC
[5] = 60 mg/kg/d over 8-75 months in young children; cited from earlier work

With `CC(=O)N[C@@H](CS)C(=O)O` [NAC, N-acetylcysteine] the “brain GSH concentrations” value ([1]; STZ diabetic mice, NAC in drinking water 1 or 3 weeks) was “significant increases in tissue GSH levels; also recorded: significantly higher; also recorded: increased”, the brain cysteine levels ([1]; vehicle and STZ diabetic mice given NAC) was “significant decrease; also recorded: significantly decreased” and the plasma glucose levels [2] was “did not alter”. For the same compound, the MG-to-GSH ratio (brain MG contents) was “significantly decreased”, the “brain MG levels” value (brain MG contents) was “a trend for decreased MG, but not significant; also recorded: remained high, although trending lower; also recorded: attenuated” and the “occludin glycation (MG-occludin adduct)” value [3] was “prevent the formation of MG-occludin adducts; also recorded: prevented”. The tail bleed time (STZ diabetic mice) was “prevented this accelerated coagulation; also recorded: reversed”, the thrombosis time [4] was “some improvement” and the tolerability [5] was “well-tolerated”.
